For 33 molecules, IC50 results are on record in patent US10000496B2, “Compositions useful for treating disorders related to kit and PDGFR” (BLUEPRINT MEDICINES CORPORATION, priority 2015, dated 2018).

In one assay the target is T1, D816V Kit (Homo sapiens, UniProt P10721, D816V).
T1 construct: purchased Carna Bioscience 08-156
Nature of the assay: Kit D816V assay at Km (Caliper electrophoretic mobility shift). Particulars: D816V Kit 0.5 nM, 15 uM ATP (Km), 1 uM Srctide, 25 C, 90 minutes; read-out: Biochemical Activity D816V IC50. The protocol:
In order to assess the activity of chemical compounds against the relevant kinase of interest, the Caliper LifeSciences electrophoretic mobility shift technology platform is used. Fluorescently labeled substrate peptide is incubated in the presence of kinase and ATP so that a […] proportion of the peptide is phosphorylated. At the end of the reaction, the mix of phosphorylated (product) and non-phosphorylated (substrate) peptides are passed through the microfluidic system of the Caliper EZ Reader 2, under an applied potential difference. The presence of the phosphate group on the product peptide provides a difference in mass and charge between those of the substrate peptide, resulting in a separation of the substrate and product pools in the sample. As the pools pass a LEDS within the instrument, these pools are detected and resolved as separate peaks. The ratio between these peaks therefore reflects the activity of the chemical matter at that concentration in that well, under those conditions.
Kit D816V assay at Km: In each well of a 384-well plate, 0.04 ng/ul (0.5 nM) of D816V Kit (Carna Bioscience 08-156) was incubated in a total of 12.5 ul of buffer (100 mM HEPES pH 7.5, 0.015% Brij 35, 10 mM MgCl2, 1 mM DTT) with 1 uM Srctide (5-FAM-GEEPLYWSFPAKKK-NH2) and 15 uM ATP at 25 C for 90 minutes in the presence or absence of a dosed concentration series of compound (1% DMSO final concentration). The reaction was stopped by the addition of 70 ul of Stop buffer (100 mM HEPES pH 7.5, 0.015% Brij 35, 35 mM EDTA and 0.2% of Coating Reagent 3 (Caliper Lifesciences)). The plate was then read on a Caliper EZReader 2 (protocol settings:—1.9 psi, upstream voltage—700, downstream voltage—3000, post sample sip 35s). Data was normalized to 0% and 100% inhibition controls and the IC50 or EC50 calculated using a 4-parameter fit using GraphPad Prism.

Assay [1] has as its target T2, Kit D816V in HMC1.2 cells (Homo sapiens, UniProt P10721, D816V/V560G).
T2 construct: endogenous in cells; host or cells: HMC1.2
Nature of the assay: HMC1.2 autophosphorylation assay (Kit autophosphorylation at tyrosine 719, AlphaLISA). The conditions noted are these: HMC1.2 mast cell leukemia cells (Kit V560G and D816V), phospho-Y719 c-Kit, 90 minutes; read-out: Cellular Activity IC50. It is filed as cell-based. The protocol:
10,000 HMC1.2 cells were incubated in 22 ul culture media (phenol-red free IMDM, no serum) in each well of a 384-well plate and serum starved overnight in a tissue culture incubator (5% CO2, 37° C.). A 10-point dose concentration series of compound (25 uM-95.4 pM) were then added to the cells in a volume of 3.1 ul to each well (0.25% DMSO final concentration). After 90 minutes, 6 ul of 5× AlphaLISA Lysis Buffer (Perkin Elmer) supplemented with a protease and phosphatase inhibitor cocktail (Cell Signaling Technologies) was added to each well and shaken at 450 rpm for 15 minutes at 4° C. 10 ul of phospho-Y719 c-Kit and total c-Kit antibodies (15 nM final concentration, Cell Signaling Technologies) and 50 ug/ml AlphaLISA rabbit acceptor beads (Perkin Elmer) were added to each well and shaken at 300 rpm at room temperature for 2 hours. 10 ul of 100 ug/ml streptavidin donor beads (Perkin Elmer) were added to each well, blocked from light with aluminum adhesive and shaken at 300 rpm at room temperature for 2 hours. Fluorescence signal was obtained on Envision (Perkin Elmer) by AlphaScreen 384 well HTS protocol. Data was normalized to 0% and 100% inhibition controls and the IC50 was calculated using Four Parameter Logistic IC50 curve fitting.
This cell line contains Kit mutated at positions V560G and D816V resulting in constitutive activation of the kinase. The following compounds were tested in an assay to measure direct inhibition of Kit D816V kinase activity by assaying Kit autophosphorylation at tyrosine 719 on the Kit protein.
In general terms: In Alpha technology, singlet oxygen from a donor bead excites a nearby acceptor bead.

T2 sequence (P10721 26-976 V560G/D816V): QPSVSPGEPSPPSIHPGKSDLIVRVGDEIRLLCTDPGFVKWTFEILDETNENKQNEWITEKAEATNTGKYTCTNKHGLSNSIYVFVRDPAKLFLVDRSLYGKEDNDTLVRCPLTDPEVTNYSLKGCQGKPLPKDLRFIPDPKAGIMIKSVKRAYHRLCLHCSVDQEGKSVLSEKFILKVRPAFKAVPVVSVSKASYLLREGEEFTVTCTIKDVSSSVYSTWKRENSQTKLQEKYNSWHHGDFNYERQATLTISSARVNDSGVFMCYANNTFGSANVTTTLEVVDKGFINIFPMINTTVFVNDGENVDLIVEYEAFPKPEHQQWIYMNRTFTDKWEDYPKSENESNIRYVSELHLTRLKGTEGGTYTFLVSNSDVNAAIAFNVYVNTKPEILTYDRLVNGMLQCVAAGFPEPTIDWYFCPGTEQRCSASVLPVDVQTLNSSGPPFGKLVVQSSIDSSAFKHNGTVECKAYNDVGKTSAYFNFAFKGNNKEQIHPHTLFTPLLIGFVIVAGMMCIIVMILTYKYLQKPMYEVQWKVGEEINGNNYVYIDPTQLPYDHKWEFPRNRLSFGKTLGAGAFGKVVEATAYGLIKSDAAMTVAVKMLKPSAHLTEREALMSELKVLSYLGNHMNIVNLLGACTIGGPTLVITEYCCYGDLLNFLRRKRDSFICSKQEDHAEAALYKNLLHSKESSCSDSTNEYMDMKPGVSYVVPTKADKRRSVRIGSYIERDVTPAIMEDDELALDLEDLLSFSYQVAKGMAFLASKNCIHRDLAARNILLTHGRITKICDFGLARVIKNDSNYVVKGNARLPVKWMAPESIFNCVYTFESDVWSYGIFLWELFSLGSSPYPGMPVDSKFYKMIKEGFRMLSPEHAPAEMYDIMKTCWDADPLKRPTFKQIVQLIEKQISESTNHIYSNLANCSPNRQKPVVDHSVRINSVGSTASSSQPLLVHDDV
T1 sequence (P10721 26-976 D816V): as the sequence (P10721 26-976 V560G/D816V) above, with G535V counted along it

The term IC50 denotes the concentration that inhibits the measured activity by half. In the case of `Cn1cc(-c2cc3c(-c4ccc(NC(=O)Cc5ccccn5)cc4)ncnn3c2)cn1` [Compound 5], the IC50 fell in the range of 10 to 100 nM at D816V Kit and 1000 to 10000 nM in assay [1].
The like results for `Cn1cc(-c2cc3c(-c4ccc(NS(=O)(=O)c5ccc(Cl)cc5)cc4F)ncnn3c2)cn1` [Compound 56] were, in that order, 1.01 to 10 nM and 100 to 1000 nM.
Take `C[C@@H](C(=O)Nc1ccc(-c2ncnn3cc(-c4cnn(C)c4)cc23)cc1)c1ccc(Cl)cc1` [Compound 28]: the IC50 at D816V Kit is 1.01 to 10 nM; in assay [1], less than 10 nM.
For the molecule `Cn1cc(-c2cc3c(-c4ccc(NC(=O)C(O)c5ccccc5)cc4)ncnn3c2)cn1` (stereo not shown) [Compound 10], the 50% inhibitory concentration (IC50) on D816V Kit was less than 1 nM.
As to `CCOC(=O)N1CC=C(c2cc3c(-c4ccc(NS(=O)(=O)c5ccc(Cl)cc5)cc4)ncnn3c2)CC1` [Compound 64, ethyl 4-(4-(4-((4-chlorophenyl)sulfonamido)phenyl)pyrrolo[2,1-f][1,2,4]triazin-6-yl)-3,6-dihydropyridine-1(2H)-carboxylate], the figures for the IC50 (at D816V Kit; in assay [1]) were 1.01 to 10 nM and 10 to 100 nM, respectively.
For the molecule `CC(C)(O)Cn1cc(-c2cc3c(-c4ccc(NC(=O)Cc5ccc(Cl)cc5)cc4)ncnn3c2)cn1` [Compound 60], the IC50 lay within 1.01 to 10 nM on D816V Kit and 10 to 100 nM in assay [1].
Take `Cn1cc(-c2cc3c(-c4ccc(NC(=O)C(C)(O)c5ccc(Cl)cc5)cc4)ncnn3c2)cn1` (stereo not shown) [Compound 51]: the IC50 on D816V Kit was 1.01 to 10 nM; in assay [1], 10 to 100 nM.
Regarding `CC(C)C(C(=O)Nc1ccc(-c2ncnn3cc(-c4cnn(C)c4)cc23)cc1)c1ccc(Cl)cc1` (stereo not shown) [Compound 58], the IC50 (at D816V Kit; in assay [1]) was 10 to 100 nM each time.
With `CN(C)C(C(=O)Nc1ccc(-c2ncnn3cc(-c4cnn(C)c4)cc23)cc1)c1ccc(Cl)cc1` (stereo not shown) [Compound 59, 2-(4-chlorophenyl)-2-(dimethylamino)-N-(4-(6-(1-methyl-1H-pyrazol-4-yl)pyrrolo[1,2-f][1,2,4]triazin-4-yl)phenyl)acetamide], the figures for the 50% inhibitory concentration (IC50) (at D816V Kit; in assay [1]) were 1.01 to 10 nM and 10 to 100 nM, respectively.
Consider `Cn1cc(-c2cc3c(-c4ccc(NS(=O)(=O)Cc5ccc(C#N)cc5)cc4)ncnn3c2)cn1` [Compound 40], for which the values for the IC50 (at D816V Kit; in assay [1]) were less than 1 nM and 10 to 100 nM, respectively.
Regarding `Cn1cc(-c2cc3c(-c4ccc(NC(=O)C(C)(N)c5ccc(Cl)cc5)cc4)ncnn3c2)cn1` (stereo not shown) [Compound 47, 2-amino-2-(4-chlorophenyl)-N-(4-(6-(1-methyl-1H-pyrazol-4-yl)pyrrolo[1,2-f][1,2,4]triazin-4-yl)phenyl)propanamide], the IC50 is 1.01 to 10 nM on D816V Kit and less than 10 nM in assay [1].
Take `Cn1cc(-c2cc3c(-c4ccc(NC(=O)C(C)(C)c5ccc(Cl)cc5)cc4)ncnn3c2)cn1` [Compound 41, 2-(4-chlorophenyl)-2-methyl-N-(4-(6-(1-methyl-1H-pyrazol-4-yl)pyrrolo[1,2-f][1,2,4]triazin-4-yl)phenyl)propanamide]: the figures for the IC50 (on D816V Kit; in assay [1]) were less than 1 nM and 10 to 100 nM, respectively.
As to `Cn1cc(-c2cc3c(-c4ccc(NC(=O)c5ccc(Cl)cc5)cc4)ncnn3c2)cn1` [Compound 12], the IC50 on D816V Kit is more than 100 nM.
`CN(C)C(=O)c1ccc(-c2cc3c(-c4ccc(NS(C)(=O)=O)cc4)ncnn3c2)cc1` [Compound 14]: the IC50 on D816V Kit was in the range of 1.01 to 10 nM; in assay [1] it was 100 to 1000 nM.
As to `COC(C(=O)Nc1ccc(-c2ncnn3cc(-c4cnn(C)c4)cc23)cc1)c1ccccc1` (stereo not shown) [Compound 15], the IC50 on D816V Kit is 1.01 to 10 nM.
For the molecule `Cn1cc(-c2cc3c(-c4ccc(NS(=O)(=O)c5ccc(C#N)cc5)cc4)ncnn3c2)cn1` [Compound 26], the IC50 on D816V Kit is 1.01 to 10 nM; in assay [1] it was 1000 to 10000 nM.
With `Cn1cc(-c2cc3c(-c4ccc(NC(=O)C5(c6ccc(Cl)cc6)CC5)cc4)ncnn3c2)cn1` [Compound 39], the IC50 at D816V Kit was 10 to 100 nM; in assay [1], 100 to 1000 nM.
The like results for `Cn1cc(-c2cc3c(-c4ccc(NC(=O)[C@](C)(N)c5ccc(Cl)cc5)cc4)ncnn3c2)cn1` [Compound 46, 2-amino-2-(4-chlorophenyl)-N-(4-(6-(1-methyl-1H-pyrazol-4-yl)pyrrolo[1,2-f][1,2,4]triazin-4-yl)phenyl)propanamide] were, in that order, 1.01 to 10 nM and less than 10 nM.
The like results for `Cn1cc(-c2cc3c(-c4ccc(NS(=O)(=O)c5ccccc5)cc4)ncnn3c2)cn1` [Compound 13] were, in that order, 1.01 to 10 nM and 100 to 1000 nM.
The matching figures for `CS(=O)(=O)Nc1ccc(-c2ncnn3cc(-c4ccc(S(C)(=O)=O)cc4)cc23)cc1` [Compound 16]: 1.01 to 10 nM and 100 to 1000 nM.
In the case of `Cn1cc(-c2cc3c(-c4ccc(NS(=O)(=O)c5ccc(Cl)cc5)c(F)c4)ncnn3c2)cn1` [Compound 57], the 50% inhibitory concentration (IC50) on D816V Kit lay within 10 to 100 nM; in assay [1] it was 1000 to 10000 nM.
For the molecule `Cn1cc(-c2cc3c(-c4ccc(NC(=O)[C@](C)(O)c5ccc(Cl)cc5)cc4)ncnn3c2)cn1` [Compound 50, 2-(4-chlorophenyl)-2-hydroxy-N-(4-(6-(1-methyl-1H-pyrazol-4-yl)pyrrolo[1,2-f][1,2,4]triazin-4-yl)phenyl)propanamide], the IC50 on D816V Kit was 10 to 100 nM; in assay [1], 100 to 1000 nM.
In the case of `Cn1cc(-c2cc3c(-c4ccc(NC(=O)[C@@](C)(O)c5ccc(Cl)cc5)cc4)ncnn3c2)cn1` [Compound 49, 2-(4-chlorophenyl)-2-hydroxy-N-(4-(6-(1-methyl-1H-pyrazol-4-yl)pyrrolo[1,2-f][1,2,4]triazin-4-yl)phenyl)propanamide], the values for the 50% inhibitory concentration (IC50) (at D816V Kit; in assay [1]) were 1.01 to 10 nM and less than 10 nM, respectively.
For the molecule `CCC(C(=O)Nc1ccc(-c2ncnn3cc(-c4cnn(C)c4)cc23)cc1)c1ccc(Cl)cc1` (stereo not shown) [Compound 43], the half-inhibitory concentration (IC50) at D816V Kit was 1.01 to 10 nM; in assay [1], 10 to 100 nM.
Consider `Cn1cc(-c2cc3c(-c4ccc(NC(=O)C(O)c5ccc(Cl)cc5)cc4)ncnn3c2)cn1` (stereo not shown) [Compound 33, 2-(4-chlorophenyl)-2-hydroxy-N-(4-(6-(1-methyl-1H-pyrazol-4-yl)pyrrolo[1,2-f][1,2,4]triazin-4-yl)phenyl)acetamide], for which the IC50 on D816V Kit is 1.01 to 10 nM; in assay [1] it was less than 10 nM.
The like results for `Cn1cc(-c2cc3c(-c4ccc(NC(=O)Cc5ccc(Cl)nc5)cc4)ncnn3c2)cn1` [Compound 20] were, in that order, 1.01 to 10 nM and 10 to 100 nM.
Consider `CC(C)S(=O)(=O)Nc1ccc(-c2ncnn3cc(-c4cnn(C)c4)cc23)cc1` [Compound 2], for which the IC50 on D816V Kit was 10 to 100 nM; in assay [1], more than 10000 nM.
The like results for `Cn1cc(-c2cc3c(-c4ccc(NS(C)(=O)=O)cc4)ncnn3c2)cn1` [Compound 1] were, in that order, 1.01 to 10 nM and 1000 to 10000 nM.
Regarding `Cc1ccc(CC(=O)Nc2ccc(-c3ncnn4cc(-c5cnn(C)c5)cc34)cc2)cc1` [Compound 8], the IC50 on D816V Kit is 1.01 to 10 nM; in assay [1] it was 10 to 100 nM.
Regarding `Cn1cc(-c2cc3c(-c4ccc(NS(=O)(=O)c5ccc(Cl)cc5)cc4)ncnn3c2)cn1` [Compound 36], the IC50 at D816V Kit is less than 1 nM; in assay [1], 10 to 100 nM.
Regarding `Cn1cc(-c2cc3c(-c4ccc(NC(=O)[C@H](O)c5ccc(Cl)cc5)cc4)ncnn3c2)cn1` [Compound 32, 2-(4-chlorophenyl)-2-hydroxy-N-(4-(6-(1-methyl-1H-pyrazol-4-yl)pyrrolo[1,2-f][1,2,4]triazin-4-yl)phenyl)acetamide], the figures for the IC50 (on D816V Kit; in assay [1]) were less than 1 nM and less than 10 nM, respectively.
As for `Cn1cc(-c2cc3c(-c4ccc(NC(=O)Nc5ccc(Cl)cc5)cc4)ncnn3c2)cn1` [Compound 21], the IC50 on D816V Kit was more than 100 nM.
Consider `Cn1cc(-c2cc3c(-c4ccc(NC(=O)c5ccc(C#N)cc5)cc4)ncnn3c2)cn1` [Compound 7], for which, on D816V Kit, the IC50 is 10 to 100 nM.
